Experimental data published in patent publication US20080076847A1, “Polymerizable compositions with acylgermanes as initiatiors” (IVOCLAR VIVADENT AG, priority 2006, published 2008).
Like-named read-outs stand apart in the source and are kept apart here.

Legend:
[1] = Photoinitiator activity by photo-DSC
Description: The activity of the photoinitiators was measured by means of photo-DSC (Differential Scanning Calorimetry) measurements on a DSC-50 device from Shimadzu, wherein the samples were irradiated alternatively with different dental lamps (Astalis 3: halogen lamp, wavelength range 400-500 nm, intensity 530 mW/cm^2; Bluephase C8: LED, wavelength range 430-490 nm, intensity 1100 mW/cm^2; Ivoclar Vivadent AG). The activity is characterized by the time of peak maximum (tmax), the polymerization rate (RP) which corresponds to the peak height, and the double bond conversion (DBC). The respective photoinitiators were dissolved in a resin mixture of D3MA:UDMA:bis-GMA=1:1:1 and then measured in an aluminium crucible by means of DSC. […]

[2] = UV-VIS absorption maximum; type: physicochemical; conditions: longest-wave maximum
[3] = known photoinitiators, longest-wave maximum; cited from earlier work
[4] = Astralis 3 lamp (400-500 nm), 0.022 mmol PI per gram of resin
[5] = Bluephase C8 lamp (430-490 nm), 0.022 mmol PI per gram of resin

## C[CH2][Ge]([CH2]C)([C](=O)c1ccccc1)[C](=O)c1ccccc1 [Bis-AG, bisbenzoyldiethylgermanium]
[1]; [4]
  DBC (double bond conversion): 84%
  Rp × 10^−3 (polymerization rate): 99.2 mol/(l × s)
[1]; [5]
  DBC (double bond conversion): 72%
  Rp × 10^−3 (polymerization rate): 98.5 mol/(l × s)
[1]; PI concentration 0.0014 mmol/g
  DBC (double bond conversion): 56%
  Rp × 10^−3 (polymerization rate): 61.0 mol/(l × s)
[1]; PI concentration 0.0055 mmol/g
  DBC (double bond conversion): 66%
  Rp × 10^−3 (polymerization rate): 85.6 mol/(l × s)
[1]; resin mixture D3MA:UDMA:bis-GMA=1:1:1
  curing time compared with campherquinone/amine: halved
[1]; resin mixture D3MA:UDMA:bis-GMA=1:1:1, same formulation
  polymerization rate (Rp) compared with camphorquinone in combination with an amine accelerator: almost double
[2]
  absorption maximum: 418.5 nm

## Cc1cc(C)c(C(=O)P(=O)(C(=O)c2c(C)cc(C)cc2C)c2ccccc2)c(C)c1 [Irg 819, bis(2,4,6-trimethylbenzoyl)phenylphosphine oxide, reference compound]
[1]; [4]
  DBC (double bond conversion): 59%
  Rp × 10^−3 (polymerization rate): 67.5 mol/(l × s)
[1]; [5]
  DBC (double bond conversion): 45%
  Rp × 10^−3 (polymerization rate): 43.5 mol/(l × s)
[1]; PI concentration 0.0014 mmol/g
  DBC (double bond conversion): 42%
  Rp × 10^−3 (polymerization rate): 30.4 mol/(l × s)
[1]; PI concentration 0.0055 mmol/g
  DBC (double bond conversion): 48%
  Rp × 10^−3 (polymerization rate): 48.3 mol/(l × s)
[3]
  absorption maximum: 397 nm

## [CH3][Ge]([CH3])([CH3])[C](=O)c1ccccc1 [Mono-AG, benzoyltrimethylgermanium]
[1]; [4]
  DBC (double bond conversion): 56%
  Rp × 10^−3 (polymerization rate): 51.0 mol/(l × s)
[1]; [5]
  DBC (double bond conversion): 49%
  Rp × 10^−3 (polymerization rate): 48.3 mol/(l × s)
[1]; PI concentration 0.0014 mmol/g
  DBC (double bond conversion): 30%
  Rp × 10^−3 (polymerization rate): 16.4 mol/(l × s)
[1]; PI concentration 0.0055 mmol/g
  DBC (double bond conversion): 48%
  Rp × 10^−3 (polymerization rate): 36.2 mol/(l × s)
[2]
  absorption maximum: 411.5 nm

## CC12CCC(C(=O)C1=O)C2(C)C (stereo not drawn) [camphorquinone]
[3]
  absorption maximum: 468 nm
